Literature values, collected in publication PMC8683664 (International Journal of Pharmaceutics: X, 2021).
Converted amounts (≈) assume the structure as drawn. Read-outs that look alike come from different tables or passages of the source.

What was measured:
[1] = test system: SAR-CoV-2; conditions: human airway epithelial (HAE) cells, value in brackets ref Agostini et al., 2018
[2] = test system: SARS-CoV-2; conditions: 2020; for EC50 in Calu-3 2B4 cells: value in brackets ref Pruijssers et al.; for EC50: read-out: EC50 in Calu-3 2B4 cells, Calu-3 2B4 cells ref Pruijssers et al.
[3] = test system: SARS-CoV-2; conditions: read-out: EC50 in Calu-3; continuous human lung epithelial cell line (Calu-3), prescribing information of Veklury ref Gilead Sciences, Inc., 2020
[4] = test system: severe COVID-19 patients; conditions: 10-day course, placebo 15 days ref Beigel et al., 2020

Row | Compound | EC50 against SAR-CoV-2 in HAE [1] [µg/mL] | EC50 in Calu-3 2B4 cells [2] [µg/mL] | EC50 [2] [nM] | EC50 [3] [nM] | recovery time [4] [days]
1 | N#C[C@@]1(c2ccc3c(N)ncnn23)O[C@H](CO)[C@@H](O)[C@H]1O [GS-441524] | 0.05243 (≈ 0.18 µM) | 0.1806 (≈ 0.62 µM) | 620 |  | 
2 | CCC(CC)COC(=O)[C@H](C)N[P@](=O)(OC[C@H]1O[C@@](C#N)(c2ccc3c(N)ncnn23)[C@H](O)[C@@H]1O)Oc1ccccc1 [remdesivir] | 0.04218 (≈ 0.07 µM) | 0.16873 (≈ 0.28 µM) | 280 | 280 | 11
